From US20240376097A1, “BCL-2 Inhibitor” (BeiGene Ltd., priority 2020, published 2024)

Key:
[1] = test system: RS4;11 (BCL-2 dependent acute lymphoblastic leukemia cell line); test: RS4;11 Cell Proliferation Assay; assay type: cell-based; details: Homo sapiens, RS4-11, RS4;11 cells, read-out: Cellular proliferation assay (IC50, nM) RS4
Description: Biological Example: RS4;11 Cell Proliferation Assay
(§1) The BCL-2 dependent acute lymphoblastic leukemia (ALL) cell line, RS4;11, was used to study the cellular potency of BCL-2 inhibitors. The cells (ATCC, CRL-1873) were cultured in RPMI-1640 complete medium (RPMI-1640 medium, HEPES (Gibco, 22400-105) supplemented with 10% fetal bovine serum (FBS) (Gibco, 10099-1441), 100 unit/ml penicillin and 100 μg/ml streptomycin (Gibco, 15140122)) and maintained in a humidified chamber at 37° C. containing 5% CO2. Each compound was serially diluted with 1 μM as the maximum concentration. To test the apoptotic effect of the compounds, the cells were seeded at 50,000 in 180 μl per well in 96-well plates and treated with 10-point dilution series of each compound for 48 hrs at 37° C. Cell viability was assessed after the treatment using CellTiter-GLO luminescent assay (Promega) according to the manufacturer's recommendations. Briefly, 30 μl of CellTiter-GLO reagent was added into 200 μl of cell culture. Mixture was agitated on an orbital shaker for 5 min to ensure cell lysis followed by 7 min incubation at room temperature to allow development and stabilization of luminescent signals, which corresponded to the quantity of ATP and thus the quantity of metabolically active cells. Luminescent signals were measured using PHERAstar FS reader (BMG). Mean IC50 values were determined with GraphPad Prism software.

[2] = test system: BCL-2 G101V knock-in cell line H96 (derive from RS4;11); test: Bcl 2-G101V Knock-In RS4;11 Cell Proliferation Assay; assay type: cell-based; details: Homo sapiens, RS4;11 Bcl-2 G101V knock-in clone H96, 48 hrs, CellTiter-GLO, read-out: Cellular proliferation assay (IC50, nM) RS4
Description: Biological Example: Bcl 2-G101V Knock-In RS4;11 Cell Proliferation Assay
(1) RS4;11 H96 Bcl 2-G101V Knock-In Cell Line Generation
Briefly, RS4;11 BCL2-G101V knock-in cell pool was generated using Crisper/Cas9 gene editing system and the BCL2-G101V knock-in single clone H96 was picked from the knock-in cell pool and validated by WES (whole exome-sequencing) and RNA-seq.
The BCL-2 dependent acute lymphoblastic leukemia (ALL) cell line, RS4;11(ATCC, CRL-1873), was cultured in RPMI-1640 complete medium (RPMI-1640 medium, HEPES (Gibco, 22400-105) supplemented with 10% fetal bovine serum (FBS) (Gibco, 10099-1441), 100 unit/ml penicillin and 100 μg/ml streptomycin (Gibco, 15140122)) and maintained in a humidified chamber at 37° C. containing 5% CO2.
To obtain BCL2-G101V knock-in cell pool, RS4;11 was co-transfected with the Cas9-gRNA which also expressed GFP label, and the Donor gene which contained the BCL2-G101V mutant sequence. After 48 hrs of electroporation, the GFP positive cells were collected through FACSAriaIII cell sorting system. Cell pool was recovered for 3 days and then cultured under 2 nM ABT-199 stress for 4 weeks. […] Then cells were plated in 96 well U-plate with 1 cell/well for 10000 wells for single clone selection. After 3-5 weeks growing, clones were successively screened by PCR sequencing. And three BCL2-G101V knock-in clones: H96, H142 and H233, have been picked out.
Three clones were validated by genome DNA and cDNA(mRNA) PCR sequencing, and BCL-2, BCL-xL and MCL-1 expression using Western Blot. The H96 clone was also validated by WES (whole exome-sequencing) and RNA-seq.
(2) Bcl 2-G101V Knock-In RS4;11 Cell Proliferation Assay
as §1, with “G101V knock-in” for “dependent acute lymphoblastic leukemia (ALL)”, “line H96 (derive from RS4;11) were” for “line, RS4;11, was”, “cells” for “cells (ATCC, CRL-1873)”, “μM or 10 μM” for “μM”, “90” for “180”, “100” for “200”

Row | IC50 [1] [nM] | IC50 [2] [nM] | SMILES
1 | 3 | 40.5 | CC(C)c1ccccc1C1CN(CC(C)(C)C)CCN1C1CC2(CCN(c3ccc(C(=O)NS(=O)(=O)c4ccc(NC[C@H]5CC[C@](C)(O)CC5)c([N+](=O)[O-])c4)c(Oc4cnc5[nH]ccc5c4)c3)CC2)C1 (stereo partly shown) [Example 12, 2-((1H-pyrrolo[2,3-b]pyridin-5-yl)oxy)-N-((4-((((1r,4r)-4-hydroxy-4-methylcyclohexyl)methyl)amino)-3-nitrophenyl)sulfonyl)-4-(2-(2-(2-isopropylphenyl)-4-neopentylpiperazin-1-yl)-7-azaspiro[3.5]nonan-7-yl)benzamide]
2 | 0.7 | 5.67 | COCCN1CCN(C2CC3(CCN(c4ccc(C(=O)NS(=O)(=O)c5ccc(NC[C@H]6CC[C@](C)(O)CC6)c([N+](=O)[O-])c5)c(Oc5cnc6[nH]ccc6c5)c4)CC3)C2)C(c2ccccc2C(C)C)C1 (stereo partly shown) [Example 13, 2-((1H-pyrrolo[2,3-b]pyridin-5-yl)oxy)-N-((4-((((1r,4r)-4-hydroxy-4-methylcyclohexyl)methyl)amino)-3-nitrophenyl)sulfonyl)-4-(2-(2-(2-isopropylphenyl)-4-(2-methoxyethyl)piperazin-1-yl)-7-azaspiro[3.5]nonan-7-yl)benzamide]
3 | 0.12 | 0.54 | COc1cc(CN2CCN(C3CC4(CCN(c5ccc(C(=O)NS(=O)(=O)c6ccc(NC[C@H]7CC[C@](C)(O)CC7)c([N+](=O)[O-])c6)c(Oc6cnc7[nH]cc(F)c7c6)c5)CC4)C3)[C@H](c3ccccc3C(C)C)C2)cc(C)c1OC [Example 210, 4-(2-((R)-4-(3,4-dimethoxy-5-methylbenzyl)-2-(2-isopropylphenyl)piperazin-1-yl)-7-azaspiro[3.5]nonan-7-yl)-2-((3-fluoro-1H-pyrrolo[2,3-b]pyridin-5-yl)oxy)-N-((4-((((1r,4r)-4-hydroxy-4-methylcyclohexyl)methyl)amino)-3-nitrophenyl)sulfonyl)benzamide]
4 | 0.15 | 0.71 | COc1cc(CN2CCN(C3CC4(CCN(c5ccc(C(=O)NS(=O)(=O)c6ccc(NC[C@H]7CC[C@](C)(O)CC7)c([N+](=O)[O-])c6)c(Oc6cnc7[nH]ccc7c6)c5)CC4)C3)[C@H](c3ccccc3C(C)C)C2)ccc1Cl [Example 276, 2-((1H-pyrrolo[2,3-b]pyridin-5-yl)oxy)-4-(2-((R)-4-(4-chloro-3-methoxybenzyl)-2-(2-isopropylphenyl)piperazin-1-yl)-7-azaspiro[3.5]nonan-7-yl)-N-((4-((((1r,4r)-4-hydroxy-4-methylcyclohexyl)methyl)amino)-3-nitrophenyl)sulfonyl)benzamide]
5 | 0.15 | 0.46 | COc1cc(CN2CCN(C3CC4(CCN(c5ccc(C(=O)NS(=O)(=O)c6ccc(NC[C@H]7CC[C@](C)(O)CC7)c([N+](=O)[O-])c6)c(Oc6cnc7[nH]cc(F)c7c6)c5)CC4)C3)[C@H](c3ccccc3C(C)C)C2)ccc1Cl [Example 278, 4-(2-((R)-4-(4-chloro-3-methoxybenzyl)-2-(2-isopropylphenyl)piperazin-1-yl)-7-azaspiro[3.5]nonan-7-yl)-2-((3-fluoro-1H-pyrrolo[2,3-b]pyridin-5-yl)oxy)-N-((4-((((1r,4r)-4-hydroxy-4-methylcyclohexyl)methyl)amino)-3-nitrophenyl)sulfonyl) benzamide]
